Test results published in patent US20190315775A1, “MODIFIED […] AND PHARMACEUTICAL COMPOSITION HAVING SAME AS ACTIVE INGREDIENT” (KEIO UNIVERSITY, priority 2016, published 2019).

Experiments:
[1] = Stability in medium (containing FBS); type: in vitro ADME
Description: (§1) Subsequently, PEG11(E)-TC11 was examined for stability in mouse blood plasma (A) and in medium (B). […] Such degradation is considered to result from a small amount of esterase in FBS (fetal calf serum) contained in the medium.

[2] = system: various high-risk MM cells (KMM1, KMS11, KMS21, KMS26, KMS27, KMS28, KMS34, MUM24); experiment: MTT cell viability of various MM cells, PEG11(E)-TC11 vs lenalidomide (Example 9); type: cell-based, human; conditions: 48 hours, FIG. 5A
[3] = Stability in mouse blood plasma; type: in vitro ADME
Description: as §1

[4] = system: KMS34 high-risk MM cell line; experiment: WST-1 cell proliferation inhibition (Example 8), KMS34; type: cell-based; conditions: Homo sapiens, KMS-34, WST-1, 48 hours, read-out: IC50, cell proliferation inhibitory activity, KMS34
Procedure: (§2) Similar to Example 7, high-risk MM cell lines were treated with drugs, TC11 and PEG5(E)-TC11 at arbitrary concentrations. […] Specifically, each high-risk MM cell line was prepared at 5×10^5 cells/ml, and then seeded at 50 μl per well (2.5×10^4 cells). Drugs such as TC11, and PEG5(E)-TC11 were added to wells at arbitrary concentrations. WST-1 reagent was added at 48 hours after addition of drugs. After 1 hour of reaction at 37° C. in a CO2 incubator, absorbance was measured at a wavelength of 450 nm using a microplate reader. Cell viability was found from an absorbance ratio using absorbance at 0 μM designated as 100%. IC50 was calculated from a semi-logarithmic chart using Microsoft (registered trademark) Excel.

[5] = system: KMS21 high-risk MM cell line; experiment: WST-1 cell proliferation inhibition (Example 8), KMS21; type: cell-based; conditions: Homo sapiens, WST-1, 48 hours, read-out: IC50, cell proliferation inhibitory activity, KMS21
Procedure: as §2

[6] = system: KMS11 high-risk MM cell line; experiment: WST-1 cell proliferation inhibition (Example 8), KMS11; type: cell-based; conditions: Homo sapiens, KMS-11, WST-1, 48 hours, read-out: IC50, cell proliferation inhibitory activity, KMS11
Procedure: as §2

cereblon (CRBN) = target: T1, cereblon (CRBN) (Homo sapiens, UniProt Q96SW2); experiment: Pull-down assay of cereblon with biotinylated drug on streptavidin beads; type: binding; conditions: 30° C., 30 minutes, FIG. 9A
T1 construct: recombinant full-length CRBN prepared by the above method was reacted with the beads; T7 tag (N); FLAG tag (C); made in house; host or cells: 293T cells (pcDNA3.3 vector), RIPA extract purified on Ni Sepharose excel
Procedure: CRBN was prepared as follows. A T7 tag was added 5′-upstream of, and a FLAG tag and a histidine tag were added 3′-downstream of a full-length CRBN gene. The gene was introduced into a pcDNA3.3 expression vector (Invitrogen), thereby constructing a plasmid DNA. Next, a Kozak sequence was added 5′-upstream of the T7 tag using a KOD-Plus-Mutagenesis Kit (TOYOBO). The plasmid DNA was transfected into 293T cells. After 4 days of culture at 37° C. with 5% CO2, cells were extracted with a RIPA buffer (Thermo), and then the extracted fraction was purified using Ni Sepharose excel (GE Healthcare). Since the purified fraction contained imidazole, TBS (Nacalai Tesque) was subjected to buffer exchange. […] Centrifugation was performed to separate the resultants into a flow-through (F) fraction and a bead (B) fraction. Protein bands corresponding to CRBN were separated by SDS-PAGE, and then detected by Western blot. […] Note that “I” indicates “Input fraction”.

[7] = system: KMM1 high-risk MM cell line; experiment: WST-1 cell proliferation inhibition (Example 8), KMM1; type: cell-based; conditions: Homo sapiens, KMM-1, WST-1, 48 hours, read-out: IC50, cell proliferation inhibitory activity, KMM1
Procedure: as §2

KMS11 xenograft = experiment: Antitumor effect on KMS11 cancer-bearing mice (Example 17); type: in vivo, ICR/SCID mice; conditions: Day 9, i.p., equimolar to TC11 60 mg/kgBW
Procedure: KMS11 was administered to 5-week-old ICR/SCID mice at 2×10^7 cells/mouse via hypodermic injection. Tumor volumes were measured over time, and the day on which the tumor volume exceeded 50 mm^3 was designated as Day 1 and observation was performed for 9 days. […] On the day of administration, these solutions were diluted 10-fold with physiological saline while stirring with Vortex, and then intraperitoneally administered. Tumor volume was calculated by the following formula.
Tumor volume (mm^3)=major axis×minor axis×minor axis×π/6=major axis×minor axis×minor axis×0.5236

T1 sequence (Q96SW2 whole entry): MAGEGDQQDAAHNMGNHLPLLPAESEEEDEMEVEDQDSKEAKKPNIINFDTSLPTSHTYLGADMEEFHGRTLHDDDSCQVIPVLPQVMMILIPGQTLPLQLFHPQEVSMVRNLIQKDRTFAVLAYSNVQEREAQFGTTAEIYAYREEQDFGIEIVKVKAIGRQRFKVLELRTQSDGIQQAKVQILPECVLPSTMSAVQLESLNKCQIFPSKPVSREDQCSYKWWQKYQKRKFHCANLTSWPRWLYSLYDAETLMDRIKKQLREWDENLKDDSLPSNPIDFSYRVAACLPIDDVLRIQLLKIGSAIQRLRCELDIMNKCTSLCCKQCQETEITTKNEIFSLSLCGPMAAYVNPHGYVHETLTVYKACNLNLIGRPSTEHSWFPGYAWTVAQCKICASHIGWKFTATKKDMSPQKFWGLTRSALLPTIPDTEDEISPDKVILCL

Row | SMILES | Stability in medium [1] | In vitro cell proliferation inhibitory activity against various high-risk MM cells [2] | Stability in mouse blood plasma [3] | IC50 [4] [µM] | IC50 [5] [nM] | IC50 [6] [µM] | Binding of CRBN to drug immobilized on beads (pull-down, Western blot) (cereblon (CRBN)) | IC50 [7] [µM] | KMS-11 tumor growth compared to control mice (KMS11 xenograft)
1 | COCCOCCOCCOCCOCCOCCOCCOCCOCCOCCOCCOCCC(=O)OCCOc1cc2c(cc1N)C(=O)N(c1c(C(C)C)cccc1C(C)C)C2=O [PEG11(E)-TC11] | slowly degraded even in medium | significant in vitro cell proliferation inhibitory activity | very quickly hydrolyzed by esterase in mouse blood plasma |  |  |  |  |  | 
2 | CC(C)c1cccc(C(C)C)c1N1C(=O)c2ccc(N)cc2C1=O [TC11, 2-(2,6-di-isopropylphenyl)-5-amino-1H-isoindole-1,3-dione, reference compound] |  |  |  | 6.5 | 1600 | 3.2 | did not bind | 5.7 | tumor growth was suppressed
